For the data set the following is noted: Sorensen buffer pH 7.4, 37° C., 24 hours agitation, excess drug. The source says:
The release medium used for these experiments was the Sorensen-Walbum buffer, chosen here due to its lack of absorbance in the UV range, thus causing less interference with the analytical drug detection process. The buffer consisted of glycine (0.1 M) and NaCl (0.1 M), adjusted to pH 7.4 with NaOH (0.1M).

On to `CC(C)Cc1ccc(C(C)C(=O)O)cc1` (stereo not shown) [Ibuprofen], for which the saturation concentration was found to be 100 µg/mL.
